Positions of bridges follow the written chain, without caps; N, C: chain ends. Non-standard residues stand in square brackets, D forms with d. Residues, ends and D or L forms follow the SMILES beside them. No end group written: not given here. Bip = N[C@@H](Cc1ccc(-c2ccccc2)cc1)C(=O)O; Hyp = O=C(O)[C@@H]1C[C@@H](O)CN1; Nle = CCCC[C@H](N)C(=O)O; Orn = NCCC[C@H](N)C(=O)O; Aib = CC(C)(N)C(=O)O
Assays:
[1] = tested on: mouse oxaliplatin acute chemotherapy pain model; assay: Mouse oxaliplatin chemotherapy pain model, multiple peptides (Example 8); format: in vivo; settings: single dose 3 mg/kg s.c., 0.5-8 h post-dose, n=3
Experimental: Oxaliplatin was dissolved in 5% glucose solution to a concentration of 1 mg/mL. For model induction, each male C57 mouse (Shanghai Bikai Keyi Biotechnology Co., Ltd.) received a single intraperitoneal injection of oxaliplatin at 10 mg/kg. Mice in the negative control or blank control group received 5% glucose solution. Approximately one week after model induction, mechanical pain thresholds of the mice were measured three times per mouse, and the average value was calculated. Mice were then randomly assigned to groups based on their pain thresholds. Drug administration was carried out according to the dosing schedule shown in Table 7, with a single dose per mouse. Mechanical pain thresholds were measured at 0.5, 1, 2, 4, 6, and 8 h post-dose. […] Table 7 Dosing Scheme for Oxaliplatin Chemotherapy Pain Model in Mice

[2] = target: α7 nAChR (Homo sapiens, UniProt P36544); assay: BLI (biolayer interferometry) affinity of peptides to α7 nAChR; format: binding; design: inferred from the 'similar' procedure on NTA sensors; settings: NTA sensor, α7 nAChR 20 µg/mL, peptide 1.372-1000 nM in PBS
Source text: (§1) BLI is a label-free technology that converts optical interference signals occurring on the surface of BLI biosensors into real-time response signals. By monitoring the molecular binding process in real time, the system determines association rate constants (ka or kon), dissociation rate constants (kd or koff), and initial binding rates, and calculates affinity (KD) by fitting analysis. Here are the specific procedures: NTA sensors (Sartorius) were placed in a pre-wetting tray, which was then positioned in a black 96-well plate with 200 µL PBS per well. The NTA sensors were pre-wetted for at least 15 minutes. The target protein α9 nAChR was diluted in PBS to 5 µg/mL, with 200 µL added per well. Test peptides were dissolved in PBS and serially diluted threefold, with concentrations from high to low as 1000 nM, 333.3 nM, 111.1 nM, 37.04 nM, 12.35 nM, 4.115 nM, and 1.372 nM, with an additional well with PBS only as a zeroconcentration control. After equilibrating the instrument baseline, the NTA sensor was used to immobilize the target protein α9 nAChR. Once immobilization was complete, the baseline was re-equilibrated, followed by a 5-minute association and a 5-minute dissociation phase. Affinity measurements of the test peptides were conducted sequentially using the above procedure. The procedure for measuring peptide affinity to α7 nAChR was similar, except that the α7 nAChR concentration was 20 µg/mL. Tables 2 and 3 show the BLI-determined affinities of alanine-scan peptide analogs with target proteins, which identified sites on the parent peptide suitable for modification. Subsequently, single-site non-natural amino acid substituted peptides were evaluated by BLI for target protein affinity. Finally, multi-site combinatorial modified peptides were measured for affinity by BLI, leading to the selection of high-affinity peptides for further screen and drug development potential. Table 2 Test Results for Affinity of Modified Peptides to α9 nAChR

[3] = target: T1, α9 nAChR (Homo sapiens, UniProt Q9UGM1); assay: BLI (biolayer interferometry) affinity of peptides to α9 nAChR; format: binding; settings: NTA sensor, α9 nAChR 5 µg/mL, peptide 1.372-1000 nM in PBS
T1 construct: inferred from capture on NTA sensor
T1 sequence (Q9UGM1 23-479): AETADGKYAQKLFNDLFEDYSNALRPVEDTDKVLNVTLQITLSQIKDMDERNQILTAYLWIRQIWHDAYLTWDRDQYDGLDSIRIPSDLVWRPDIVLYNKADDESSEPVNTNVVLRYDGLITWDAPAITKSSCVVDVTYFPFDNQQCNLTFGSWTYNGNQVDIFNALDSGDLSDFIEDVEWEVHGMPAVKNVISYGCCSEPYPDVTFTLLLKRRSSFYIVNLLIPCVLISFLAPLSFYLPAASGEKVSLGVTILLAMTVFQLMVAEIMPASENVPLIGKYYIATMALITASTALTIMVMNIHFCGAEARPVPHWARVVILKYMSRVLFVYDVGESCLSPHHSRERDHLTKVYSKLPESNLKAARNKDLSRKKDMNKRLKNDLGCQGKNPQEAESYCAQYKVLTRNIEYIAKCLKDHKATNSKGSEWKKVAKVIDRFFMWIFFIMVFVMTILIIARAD
Source text: as §1

[4] = In vitro plasma stability and predicted half-life (HPLC main peak area, Example 3); format: in vitro ADME; settings: human plasma (EDTA anticoagulant), 37°C, sampled up to 24 h, predicted half-life calculated with Winolin
Experimental: The modified peptides in this study were designed with non-natural amino acid substitutions at certain non-essential positions to enhance peptide stability and improve druggability. Peptides were dissolved in deionized water to 2 mg/mL, then diluted with acetonitrile to 1 mg/mL and filtered through an organic membrane. 200 µL of the filtrate was transferred to an LC vial as the peptide control. 300 µL of human plasma (comprising EDTA as anticoagulant, Nanjing Senbeijia Biotechnology Co., Ltd., Lot No. SBJ-P-HU011-100 mL) was mixed with 300 µL acetonitrile, centrifuged at 4°C and 12,000 rpm for 5 minutes. The supernatant was filtered through an organic membrane, and 200 µL of the filtrate was transferred to an LC vial as the plasma blank control. For peptide samples, 10 mg of peptide was weighed mixed with 5 mL of human plasma and vortexed thoroughly. 300 µL of peptide-containing plasma was mixed with 300 µL acetonitrile, centrifuged at 4°C and 12,000 rpm for 5 minutes, and the supernatant was filtered through an organic membrane. 200 µL of the filtrate was transferred to an LC vial as the 0 min sample. Peptide-containing plasma was incubated in a 37°C water bath, and samples at other time points were collected using the same procedure as the 0 min sample. For peptides AJ003 and AJ003-1, the sampling time points were 0 min, 5 min, 10 min, 20 min, 30 min, 1 h, 2 h, 4 h, 6 h, 10 h, 12 h, and 24 h. For modified peptides AJ003-34, AJ003-35, AJ003-36, AJ003-37, AJ003-38, AJ003-39, AJ003-40, AJ003-41, and AJ003-42, the time points were 0 min, 10 min, 30 min, 1 h, 4 h, 6 h, 10 h, 12 h, and 24 h. All peptide sample series were analyzed by HPLC, recording the changes in main peak areas over plasma incubation time. Predicted in vitro half-lives were calculated using the pharmacokinetic software Winolin. Due to the presence of tautomers, AJ003 peak areas were difficult to integrate accurately over time. AJ003-1 is an analog of AJ003 in which the threonine at position 5 is substituted with D-threonine; its sequence differs from AJ003 by only one amino acid configuration. […] The in vitro plasma half-lives of modified peptides AJ003-34, AJ003-35, AJ003-36, AJ003-37, AJ003-38, AJ003-39, AJ003-40, AJ003-41, and AJ003-42 were 61.9 h, 45.3 h, 65.3 h, 71.0 h, 26.7 h, 43.0 h, 84.0 h, 30.0 h, and 61.4 h, respectively.

[5] = tested on: rat paclitaxel-induced chronic chemotherapy pain model; assay: Rat paclitaxel chemotherapy pain model, same dose (Example 5); format: in vivo; settings: 1 mg/kg s.c.
Experimental: Male SPF (Specific Pathogen Free) SD rats weighing 180-200 g (Shanghai Institute of Planned Parenthood Research, Experimental Animal Department) were used. On the day of model induction, rats were weighed, and baseline mechanical pain thresholds were measured. Animals with large differences in body weight or pain threshold were excluded, and the remaining rats were subjected to the experimental protocol. Paclitaxel powder was dissolved in olive oil to 1 mg/mL. Each rat received an intraperitoneal injection of 2 mg/kg per dose. Four injections were administered on days 1, 3, 5, and 7. Rats in the negative control or vehicle control group received injections of the solvent used to dissolve paclitaxel. […] The blank group in Table 4 represents rats without pain modeling, and the model group represents rats with pain modeling but no drug treatment. On days 1, 3, 5, and 12, drugs were administered at fixed times. On days 1, 3, and 5, mechanical pain thresholds of the right hind paw at the corresponding time were measured at 1 h, 2.5 h, 4 h, and 5.5 h after dosing using a blunt probe. On day 12, mechanical pain thresholds were measured at 4 h and 7 h after dosing. […] AJ003-36 and AJ003-40 were thus identified as candidate molecules for further study. Paclitaxel is a widely used small-molecule chemotherapy drug that, while effective against tumors, can induce neuropathic pain in many cancer patients due to neurotoxicity. The chronic chemotherapy pain model induced in male SD rats via multiple low-dose intraperitoneal injections of paclitaxel simulates clinical chemotherapy-induced neuropathic pain. Using this model, the analgesic effects of five modified peptides, the parent peptide AJ003, and the positive control pregabalin were evaluated. […] Table 4 Dosing Scheme for Screening Analgesic Activity of Selected Modified Peptides at the Same Dose in the Paclitaxel Chemotherapy Pain Model

[6] = Plasma stability of AJ003-40 and AJ003-24 (HPLC, Example 4); format: in vitro ADME; settings: human plasma; for main peak area: 2 mg/mL
Experimental: Peptides AJ003-40 and AJ003-24 were separately weighed and mixed with human plasma to prepare solutions at 2 mg/mL. 300 µL of peptide-containing plasma was mixed with 300 µL acetonitrile, centrifuged at 4°C and 12,000 rpm for 5 minutes, and the supernatant was filtered through an organic membrane. 200 µL of the filtrate was transferred to an LC vial as the 0 h sample. Peptide-containing plasma was incubated in a 37°C water bath. For AJ003-40, 300 µL of plasma was sampled at 24 h, mixed with 300 µL acetonitrile, centrifuged, filtered, and 200 µL of the filtrate was transferred to an LC vial as the 24 h sample. For AJ003-24, 300 µL of plasma was sampled at 22 h, processed similarly, and 200 µL of the filtrate was transferred to an LC vial as the 22 h sample.

[7] = target: α9α10 nAChRs (Homo sapiens, UniProt Q9GZZ6+Q9UGM1); settings: cited from earlier work
Sequence of α9α10 nAChRs (Q9UGM1 26-479 limits assumed): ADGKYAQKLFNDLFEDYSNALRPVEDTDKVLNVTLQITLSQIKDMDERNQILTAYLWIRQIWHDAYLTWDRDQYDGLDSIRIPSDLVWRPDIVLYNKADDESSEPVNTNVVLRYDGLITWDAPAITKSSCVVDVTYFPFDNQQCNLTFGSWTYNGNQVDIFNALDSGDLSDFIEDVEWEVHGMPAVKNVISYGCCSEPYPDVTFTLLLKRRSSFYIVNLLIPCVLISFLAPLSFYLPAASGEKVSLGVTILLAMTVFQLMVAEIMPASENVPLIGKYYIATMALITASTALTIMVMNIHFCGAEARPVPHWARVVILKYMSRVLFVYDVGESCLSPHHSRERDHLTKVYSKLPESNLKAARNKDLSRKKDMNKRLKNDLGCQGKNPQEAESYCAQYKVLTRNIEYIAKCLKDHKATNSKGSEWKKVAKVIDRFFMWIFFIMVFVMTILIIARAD
Sequence of α9α10 nAChRs (Q9GZZ6 25-450): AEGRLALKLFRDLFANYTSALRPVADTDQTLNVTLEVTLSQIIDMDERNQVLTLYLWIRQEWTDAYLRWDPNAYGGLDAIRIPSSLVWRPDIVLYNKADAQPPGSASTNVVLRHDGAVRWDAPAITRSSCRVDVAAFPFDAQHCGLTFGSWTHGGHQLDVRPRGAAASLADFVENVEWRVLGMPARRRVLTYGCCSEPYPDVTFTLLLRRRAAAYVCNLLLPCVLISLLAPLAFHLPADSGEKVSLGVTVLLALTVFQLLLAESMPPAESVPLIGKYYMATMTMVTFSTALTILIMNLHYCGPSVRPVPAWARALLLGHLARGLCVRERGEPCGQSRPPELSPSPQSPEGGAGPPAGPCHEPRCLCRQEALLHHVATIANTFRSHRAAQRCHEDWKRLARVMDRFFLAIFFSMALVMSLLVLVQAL

[8] = target: T2, α7 nAChR (human, UniProt P36544 23-233); assay: BLI, α7 nAChR captured on NTA sensor, peptide in solution
T2 construct: also called target protein α7 nAChR; α7 nicotinic acetylcholine receptor
T2 sequence (P36544 23-233 limits assumed): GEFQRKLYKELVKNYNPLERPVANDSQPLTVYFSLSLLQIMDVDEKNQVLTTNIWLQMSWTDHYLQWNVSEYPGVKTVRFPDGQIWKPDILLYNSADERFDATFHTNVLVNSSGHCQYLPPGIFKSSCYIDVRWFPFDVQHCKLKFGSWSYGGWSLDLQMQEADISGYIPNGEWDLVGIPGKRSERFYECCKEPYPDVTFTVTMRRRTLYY

[9] = target: T3, α9 nAChR (human, UniProt Q9UGM1 23-238); assay: BLI, α9 nAChR captured on NTA sensor, peptide 1.372-1000 nM in solution
T3 construct: also called target protein α9 nAChR; α9 nicotinic acetylcholine receptor
T3 sequence (Q9UGM1 23-238 limits assumed): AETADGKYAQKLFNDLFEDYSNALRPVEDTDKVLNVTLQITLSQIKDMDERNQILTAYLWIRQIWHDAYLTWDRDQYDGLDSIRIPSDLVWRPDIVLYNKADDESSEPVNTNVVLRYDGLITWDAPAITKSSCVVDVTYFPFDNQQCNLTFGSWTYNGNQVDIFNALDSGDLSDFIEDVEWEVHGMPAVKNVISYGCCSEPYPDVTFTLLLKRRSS

CC(C)C[C@H](NC(=O)C(C)(C)NC(=O)[C@H]1CSSC[C@H](NC(=O)[C@H](CO)NC(=O)CN)C(=O)N[C@@H](CO)C(=O)N[C@H]([C@H](C)O)C(=O)N2CCC[C@H]2C(=O)N2CCC[C@H]2C(=O)N[C@@H](CO)C(=O)N1)C(=O)N[C@@H](Cc1ccc(O)cc1)C(=O)N[C@@H](CO)C(=O)O [AJ003-25, GSCS-(D-Thr)-PPS-(D-Cys)-Aib-LYS (3,9 disulfide bond)] (H-GSCS[dT]PPS[dC][Aib]LYS-OH; disulfide 3-9)
analgesic activity against oxaliplatin-induced chemotherapy pain (mechanical pain threshold compared with the model group) [1]: ineffective
Kd [2]: 4670 nM

CC(C)C[C@H](NC(=O)[C@@H](NC(=O)[C@H]1CSSC[C@H](NC(=O)[C@H](CO)NC(=O)CN)C(=O)N[C@@H](CO)C(=O)N[C@H]([C@H](C)O)C(=O)N2CCC[C@H]2C(=O)N2C[C@H](O)C[C@H]2C(=O)N[C@@H](CO)C(=O)N1)C(C)C)C(=O)N[C@@H](Cc1ccc(O)cc1)C(=O)N[C@@H](CO)C(=O)O [AJ003-17, GSCS-(D-Thr)-P-Hyp-S-(D-Cys)-VLYS (3,9 disulfide bond)] (H-GSCS[dT]P[Hyp]S[dC]VLYS-OH; disulfide 3-9)
Kd [3]: 110 nM

CCCC[C@H](NC(=O)[C@@H](NC(=O)[C@H]1CSSC[C@H](NC(=O)[C@H](CO)NC(=O)CN)C(=O)N[C@@H](CO)C(=O)N[C@H]([C@H](C)O)C(=O)N2C[C@H](O)C[C@H]2C(=O)N2C[C@H](O)C[C@H]2C(=O)N[C@@H](CO)C(=O)N1)C(C)C)C(=O)N[C@@H](Cc1ccc(-c2ccccc2)cc1)C(=O)N[C@@H](CCCN)C(N)=O [AJ003-34, GSCS-(D-Thr)-Hyp-Hyp-S-(D-Cys)-V-Nle-Bip-Orn-NH2 (3,9 disulfide bond)] (H-GSCS[dT][Hyp][Hyp]S[dC]V[Nle][Bip][Orn]-NH2; disulfide 3-9)
half-life at 2 mg/mL [4]: 61.9 h
ranking among the five candidate modified peptides [5]: top three analgesic candidates
Kd [2]: 360 nM

CC(C)C[C@H](NC(=O)[C@@H](NC(=O)[C@H]1CSSC[C@H](NC(=O)[C@H](CO)NC(=O)CN)C(=O)N[C@@H](CO)C(=O)N[C@H]([C@H](C)O)C(=O)N2C[C@H](O)C[C@H]2C(=O)N2CCC[C@H]2C(=O)N[C@@H](CO)C(=O)N1)C(C)C)C(=O)N[C@@H](Cc1ccc(O)cc1)C(=O)N[C@@H](CO)C(=O)O [AJ003-16, GSCS-(D-Thr)-Hyp-PS-(D-Cys)-VLYS (3,9 disulfide bond)] (H-GSCS[dT][Hyp]PS[dC]VLYS-OH; disulfide 3-9)
Kd [3]: 35.3 nM

CC(C)C[C@H](NC(=O)[C@@H](NC(=O)[C@H]1CSSC[C@H](NC(=O)[C@H](CO)NC(=O)CN)C(=O)N[C@@H](CO)C(=O)N[C@H]([C@H](C)O)C(=O)N2CCC[C@H]2C(=O)N2CCC[C@H]2C(=O)NCC(=O)N1)C(C)C)C(=O)N[C@@H](Cc1ccc(O)cc1)C(=O)N[C@@H](CO)C(=O)O [AJ003-24, GSCS-(D-Thr)-PPG-(D-Cys)-VLYS (3,9 disulfide bond)] (H-GSCS[dT]PPG[dC]VLYS-OH; disulfide 3-9)
main peak area ([6]; 0 h): 746.80
main peak area ([6]; 37°C, 22 h): 267.45
metabolised at 22 h, 2 mg/mL ([6]; 37°C, 22 h, read-out: degradation): 64.2%
analgesic activity against oxaliplatin-induced chemotherapy pain (mechanical pain threshold compared with the model group) [1]: ineffective

Vc1.1
reduction of activity on human receptors compared to rat receptors [7]: approximately 100 fold

B1: AJ003-27 (peptide)
peptide: GSCS[dT]PPS[dC]VIYS
modifications: disulfide 3-9
notes: Printed: GSCS-(D-Thr)-PPS-(D-Cys)-VIYS (3,9 disulfide bond)
Kd [8]: 323 nM

B2: AJ003-30 (peptide)
peptide: GSCS[dT]PPS[dC]VLWS
modifications: disulfide 3-9
notes: Printed: GSCS-(D-Thr)-PPS-(D-Cys)-VLWS (3,9 disulfide bond)
Kd [8]: 27.8 nM

B3: AJ003-26 (peptide)
peptide: GSCS[dT]PPS[dC]GLYS
modifications: disulfide 3-9
notes: Printed: GSCS-(D-Thr)-PPS-(D-Cys)-GLYS (3,9 disulfide bond)
Kd [8]: 6830 nM

B4: AJ003-1 (peptide)
peptide: GSCS[dT]PPS[dC]VLYS
modifications: disulfide 3-9
notes: Printed: GSCS-(D-Thr)-PPS-(D-Cys)-VLYS (3,9 disulfide bond)
Kd [8]: 22 nM
Kd [9]: 86 nM

B5: AJ003-24 (peptide)
peptide: GSCS[dT]PPG[dC]VLYS
modifications: disulfide 3-9
notes: Printed: GSCS-(D-Thr)-PPG-(D-Cys)-VLYS (3,9 disulfide bond)
Kd [8]: 14000 nM

Source: patent publication EP4725956A1, “MODIFIED POLYPEPTIDE AND USE THEREOF IN FIELD OF ANALGESIA” (Nanjing Anji Biotechnology Co., Ltd., priority 2023, dated 2024)
